Key:
Type in all cases: cell-based, human
IL-6 = assay: IL-1ß-induced IL-6 expression in OA chondrocytes (RT-PCR and ELISA); conditions: IL-1ß 5 ng/ml, 24 h; EGCG 10 μM; HA or conjugate at two concentrations (FIGS. 2, 5)
Procedure: (§1) Cryopreserved human osteoarthritis chondrocytes (passage 1) were obtained from Cell Applications, INC. (USA). The cells were thawed and cultured in T75 cell culture flasks using complete growth medium (DMEM/F12 medium supplemented with 10% FBS and 1% penicillin/streptomycin). The cells were maintained at 37° C. and 5% CO2 atmosphere. Growth medium was replaced every 2-3 days and the cells were subcultured at 80% confluency. Only cells at passage 2 and 3 were used in this study. After expansion, the cells were re-differentiated in alginate beads according to previously established protocol with some modifications. Briefly, cells were trypsinized, pelleted and resuspended in 1.2% (w/v) sodium alginate in 0.15 M NaCl. The cell suspension was dispensed through a 210 needle dropwise into gelation solution (102 mM CaCl2, 10 mM HEPES and 0.0005% Tween 20, pH 7.4). Approximately 15 alginate beads were dispensed in 5 ml of gelation solution in a 6-wellplate. After gelation for 10 min, the gelation solution was removed and the alginate beads were washed twice with 5 ml of 0.15 M NaCl. Complete growth medium (5 ml) was then added and the cells were re-differentiated for 8 days in the alginate beads. Medium was changed every 2-3 days. After 8 days, the alginate beads were solubilized in dissolution solution (55 mM EDTA and 10 mM HEPES, pH 7.4).

MMP-1 = assay: IL-1ß-induced MMP-1 expression in OA chondrocytes (RT-PCR and ELISA); conditions: IL-1ß 5 ng/ml, 24 h; EGCG 10 μM; HA or conjugate at two concentrations (FIGS. 3, 6)
Procedure: as §1

MMP-13 = assay: IL-1ß-induced MMP-13 expression in OA chondrocytes (RT-PCR and ELISA); conditions: IL-1ß 5 ng/ml, 24 h; EGCG 10 μM; HA or conjugate at two concentrations (FIGS. 3, 6)
Procedure: as §1

MMP-3 = assay: IL-1ß-induced MMP-3 expression in OA chondrocytes (RT-PCR and ELISA); conditions: IL-1ß 5 ng/ml, 24 h; EGCG 10 μM; HA or conjugate at two concentrations (FIGS. 3, 6)
Procedure: as §1

TNF-α = assay: IL-1ß-induced TNF-α expression in OA chondrocytes (RT-PCR and ELISA); conditions: IL-1ß 5 ng/ml, 24 h; EGCG 10 μM; HA or conjugate at two concentrations (FIGS. 2, 5)
Procedure: as §1

O=C(O[C@@H]1Cc2c(O)cc(O)cc2O[C@@H]1c1cc(O)c(O)c(O)c1)c1cc(O)c(O)c(O)c1 [EGCG, epigallocatechin gallate]
effectively inhibited: downregulation of IL-1ß-induced IL-6 gene and protein expression (IL-6) | downregulation of IL-1ß-induced MMP-1 gene and protein expression (MMP-1) | downregulation of IL-1ß-induced MMP-13 gene and protein expression (MMP-13) | downregulation of IL-1ß-induced MMP-3 gene and protein expression (MMP-3) | downregulation of IL-1ß-induced TNF-α gene and protein expression (TNF-α)
